Source: patent US7271198B2, “Method of treating autoimmune diseases” (Wake Forest University, priority 2000, dated 2007)
“And” between values parts separate entries of the source, which are not always exact repeats. Equal entries are not always repeated.

Columns and labels:
MRL/lpr mice = experiment: In vivo TSA in 26 week old MRL/lpr mice (5 mg/kg s.c. daily), proteinuria; design: species or system mouse
Text: The effect of TSA on proteinuria and nitric oxide secretion and increased survival in 26 week old MRL/lpr mice was examined. In this age group, MRL/lpr mice developed full-blown disease with evidence of proliferative immune-complex-mediated glomerulo-nephritis, vasculitis, arthritis, and massive lymphadenopathy. Most of the mice expired by the age of 30 weeks. […] Urine was collected for a 24 hr time period on days 0, 7 and 14, and measured for protein and nitric oxide. Toxicity of TSA is being assessed by monitoring body weight, infection, abnormal behavior and survival of treated mice.

TGF-β1 gene chromatin = experiment: DNase I sensitivity assay of TGF-β1 gene in SLE PBMCs; assay type: cell-based, human
Description: Because nuclease susceptibility is one of the characteristics of active chromatin, a DNase I sensitivity assay was used to examine chromatin conformation of the TGF-β1 gene in SLE PBMCs in the absence or presence of TSA. SLE PBMCs were treated with 1000 ng/ml of TSA for 18 hr, a treatment course shown previously to result in an optimal increase of TGF-β1 mRNA. Equal amounts of purified nuclei isolated from vehicle- or TSA-treated cells were exposed to increasing concentrations of DNase I (FIGS. 7A & 7B). Changes in DNase sensitivity were measured by a DNase I-PCR assay using 0.5 μg of DNA. As shown in the FIG. 7A, the cells treated with only vehicle were relatively resistant to DNase I digestion, even with use of higher concentrations of DNase I (0.25 μg/μl). In contrast, cells treated with TSA were digested in the lower concentration (0.025 μg/μl) of DNase I (FIG. 7B; lanes 3–6). […] There was no change in DNase I sensitivity at the G6PD gene promoter in vehicle- or TSA-treated SLE PBMCs (FIGS. 7A & 7B). Thus, it is likely that Trichostatin A increases DNase I sensitivity in the TGF-β1 gene of SLE PBMCs.

IL-6 mRNA = IL-6 mRNA in MRL/lpr splenocytes; assay type: cell-based, mouse
Description: In determining whether TSA or SAHA down-regulate IL-6 mRNA content, splenocytes from 24-wk MRL/lpr mice were treated with increasing concentrations of TSA for 18 hr. […] TSA decreased IL-6 transcript at a concentration of 100 ng/ml and exerted maximal inhibition at 300 ng/ml. To address whether TSA and SAHA down-regulate LPS- and IFN-γ induced IL-6 transcript levels, splenocytes from younger MRL/lpr mice were treated in the absence or presence of TSA or SAHA for 18 hr before LPS and IFN-γ stimulation for 6 or 18 hr. […] Next, the effect of TSA and SAHA on IL-6 protein secretion in stimulated splenocytes was measured (FIG. 10D). When splenocytes were cultured with LPS and IFN-γ for 72 hr, there was a mean (±SEM) 34.4±7.6 pg/ml of IL-6 protein secretion.

[1] = system: acetylated histones H3 and H4 in the TGF-β1 promoter; experiment: Chromatin immunoprecipitation (ChIP) assay, TGF-β1 gene promoter; assay type: cell-based, human
Text: The effect of HDAC inhibition on the acetylation of H3 or H4 associated with the TGF-β1 gene promoter was examined using the chromatin immunoprecipitation (ChIP) assay in an attempt to determine if HDIs induce accumulation of acetylated histones in chromatin associated with the TGF-β1 promoter in SLE PBMCs but not in healthy normal controls. The study undertaken included immunoprecipitating formaldehyde cross-linked, sonicated chromatin fragments from vehicle- and HDI-treated cells using anti-acetyl H3 and H4 antibodies, respectively. The immunoprecipitated DNA released from the bound protein was analyzed by quantitative PCR. A series of primer sets encompassing the TGF-β1 gene from −1.4 kbp to +0.6 kbp relative to the start site of transcription were created (FIG. 6A). Approximately a 12- and 4-fold enhancement of acetylated histones H3 and H4, respectively, in the TGF-β1 promoter in SLE was observed (FIGS. 6B & 6C).
To determine whether this effect was selective for the TGF-β1 gene in SLE PBMCs, the level of histone acetylation in the glucose-6-phosphate dehydrogenase (G6PD) gene was also examined. As shown in FIGS. 6E & 6F, there was no change in the levels of acetylated histones H3 and H4 at the G6PD gene in SLE PBMCs.

cell-surface CD154 = experiment: Flow cytometry of cell-surface CD154 and CD3-ε on SLE T cells; assay type: cell-based, human
Description: In agreement with previous work (M. Koshy, et al., J. Clin. Invest. 98, 826 (1996); A. Desai-Mehta, et al., J. Clin. Invest. 97, 2063 (1996)), we find that an increased proportion of SLE T cells express cell-surface CD154 compared to normal and disease controls. To determine if TSA-dependent down-regulation of CD154 mRNA reduces surface expression of CD154, SLE T cells were treated for 18 hr with TSA and the proportion of CD154^+ cells quantified by flow cytometry (E. Hagiwara, et al., Arthritis Rheum. 39, 379 (1996)). […] T cells were stained with saturating concentrations of monoclonal FITC-anti-CD3 and PE anti-CD154 antibodies (Caltag Labs, Burlingame, Calif.) for 30 min at 4° C., and the proportion of cells expressing CD3-ε and CD154 was quantified. In sum, these experiments reveal that TSA down-regulates both CD154 mRNA and protein expression, but not GAPDH mRNA or CD3-ε expression, in SLE T cells.

IL-10 protein = IL-10 protein production by SLE T cells (ELISA); assay type: cell-based, human
Description: To determine whether TSA could down-regulate IL-10, a dose-response analysis was performed. […] However, when SLE T cells were cultured in the presence of TSA for 18 hr, no detectable IL-10 transcripts were identified (FIG. 2C, lanes 3, 6, 9). When IL-10 transcripts from all eight SLE subjects were quantified relative to GAPDH transcripts, TSA inhibited expression of IL-10 mRNA by 71% (FIG. 2D; P=0.029). […] IL-10 and IFN-γ protein production were quantified by ELISA (R & D Systems, Minneapolis, Minn.). […] Thus, like CD154, TSA was able to block expression of IL-10 transcript, abolishing IL-10 production by SLE T cells.

[2] = splenocytes from 24-wk MRL/lpr mice, 18 hr

## CC(/C=C/C(=O)NO)=C\[C@@H](C)C(=O)c1ccc(N(C)C)cc1 [TSA, Trichostatin A]
MRL/lpr mice; 26 week old MRL/lpr mice, 5 mg/kg TSA s.c. daily, in comparison to vehicle
  proteinuria in day 7 and day 14 compared to day 0: less proteinuria
MRL/lpr mice; individual 26 week old MRL/lpr mice of TSA group, day 0 (baseline), 24 hr urine
  Proteinuria, DAY 0: 964 µg/day and 10 µg/day and 16689 µg/day and 213 µg/day and 14420 µg/day and 107 µg/day and 5 µg/day
MRL/lpr mice; individual 26 week old MRL/lpr mice, 5 mg/kg TSA s.c. daily, day 7, 24 hr urine, 5 mg/kg
  Proteinuria, DAY 7: 340 µg/day and 4.6 µg/day and 274 µg/day and 54 µg/day and 4701 µg/day and 80 µg/day and 9 µg/day
MRL/lpr mice; individual 26 week old MRL/lpr mice, 5 mg/kg TSA s.c. daily, day 14, 24 hr urine, 5 mg/kg
  Proteinuria, DAY 14: 242 µg/day and 4.3 µg/day and 865 µg/day and 82 µg/day and 3081 µg/day and 25 µg/day and 10 µg/day
TGF-β1 gene chromatin; SLE PBMCs, 1000 ng/ml TSA, 18 hr
  increase in DNase I sensitivity, TGF-β1 promoter: three-fold
TGF-β1 gene chromatin; vehicle- or TSA-treated SLE PBMCs
  DNase I sensitivity at the G6PD gene promoter: no change
IL-6 mRNA; [2]
  TSA concentration of maximal inhibition of IL-6 transcript: 300 ng/mL
  TSA concentration that decreased IL-6 transcript: 100 ng/mL
IL-6 mRNA; splenocytes from younger MRL/lpr mice pretreated 18 hr, stimulated 6 or 18 hr
  LPS- and IFN-γ induced IL-6 mRNA: no detectable IL-6 mRNA
[1]; SLE PBMCs
  acetylated state of G6PD gene: does not change
[1]; SLE PBMCs, ChIP
  enhancement of acetylated histone H3 in the TGF-β1 promoter: ~12 fold
  enhancement of acetylated histone H4 in the TGF-β1 promoter: ~4 fold
[1]; normal PBMCs treated with TSA
  enhancement of acetylated histones H3 and H4 at the TGF-β1 promoter: essentially no enhancement
cell-surface CD154; SLE T cells pretreated with TSA 1000 ng/ml 18 hr, PMA+IO 24 hr, P=0.005
  new population of CD154+ cells induced by PMA+IO: completely inhibited
cell-surface CD154; SLE T cells, with or without TSA and PMA+IO
  CD3-ε expression: remained stable
cell-surface CD154; non-activated SLE T cells, TSA, over 24 hr, vs untreated
  reduction of cell-surface CD154+ cells: did not effect any significant reduction
IL-10 protein; SLE T cells, at 24 hr
  inhibition of IL-10 synthesis: complete inhibition
IL-10 protein; SLE T cells, within 6 hr
  inhibition of IL-10 production: 90%
IL-10 protein; T cells from eight SLE subjects, 18 hr
  TSA concentration of maximal inhibition of IL-10 protein production: 300 ng/mL
